Source: patent US12091684B2, “Platelet-derived mitochondria treatment and method of generating multipotent cells” (Hackensack Meridian Health, Inc., priority 2020, dated 2024)

Columns and labels:
CXCR4 = CXCR4 (Homo sapiens, UniProt P61073); conditions: 30 μM, 4 hours, purified PB-IPC nuclei with labeled mitochondria
Method: To determine whether the action of SDF-1/CXCR4 contributed to the penetration of mitochondria into nuclei, a blocking experiment with CXCR4 receptor antagonist AMD3100 was performed. The purified PB-IPC's nuclei were treated with MitoTracker Deep Red-labeled purified mitochondria in the presence or absence of AMD 3100 (30 μM). The equal concentration of solvent DMSO served as a control. After 4 hours of the treatment, nuclei were washed twice with PBS and prepared for flow cytometry.

γ-secretase = assay: DAPT-blocking experiment (CD34 expression by flow cytometry); type: cell-based, human; conditions: PB-IPCs, 10 μM DAPT, 100 μg/mL mitochondria where present, 7-14 days, n=4
Method: For a DAPT-blocking experiment, PB-IPCs were treated with 100 μg/mL mitochondria plus 10 μM DAPT (Sigma, Saint Louis, MO, USA, Catalog #D5942) for 7-14 days in non-tissue, culture-treated 24-well plates or Petri dishes with serum-free NutriStem® hPSC XF culture medium (Corning, New York, NY, USA), at 37° C. and 8% CO2. Subsequently, both treated and untreated PB-IPC were collected to examine the expression of CD34 by flow cytometry.

Chain of CXCR4 (P61073 whole entry): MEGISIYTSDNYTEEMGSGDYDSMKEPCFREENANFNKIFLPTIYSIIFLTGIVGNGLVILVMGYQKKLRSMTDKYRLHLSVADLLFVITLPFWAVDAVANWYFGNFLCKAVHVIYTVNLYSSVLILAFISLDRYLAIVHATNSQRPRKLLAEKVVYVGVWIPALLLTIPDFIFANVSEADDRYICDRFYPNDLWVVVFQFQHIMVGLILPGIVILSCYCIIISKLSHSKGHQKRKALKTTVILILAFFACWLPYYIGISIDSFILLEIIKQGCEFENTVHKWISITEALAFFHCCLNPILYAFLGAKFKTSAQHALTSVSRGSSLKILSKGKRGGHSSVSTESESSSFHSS

SMILES: c1cc(CN2CCCNCCNCCCNCC2)ccc1CN1CCCNCCNCCCNCC1 [AMD 3100]
- percentage of MitoTracker Deep Red-positive nuclei (CXCR4): markedly reduced

SMILES: C[C@H](NC(=O)Cc1cc(F)cc(F)c1)C(=O)N[C@H](C(=O)OC(C)(C)C)c1ccccc1 [DAPT, N—[N-(3,5-difluorophenacetyl)-L-alanyl]-S-phenylglycine t-butyl ester]
- percentage of CD34+ cells (γ-secretase): 2.59%±0.13%
